Laboratory results from PubChem BioAssay (NCI).
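Method: 48-hour compound exposure of cells in 96-well plates, five concentrations, linear interpolation of endpoints. GI50 is the concentration that inhibits growth by half. Definition used: TGI = concentration required for complete inhibition of growth.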

Tests used:
Test in all cases: NCI tumour cell line growth inhibition, 48 h
EKVX NSCLC = system: EKVX NSCLC
OVCAR-8 ovarian = system: OVCAR-8 ovarian
SF-268 CNS = system: SF-268 CNS
786-0 renal = system: 786-0 renal
LXFL 529 NSCLC = system: LXFL 529 NSCLC
SK-OV-3 ovarian = system: SK-OV-3 ovarian
KM12 colon = system: KM12 colon
HOP-62 NSCLC = system: HOP-62 NSCLC
M19-MEL melanoma = system: M19-MEL melanoma
UO-31 renal = system: UO-31 renal
HCT-116 colon = system: HCT-116 colon
COLO 205 colon = system: COLO 205 colon
M14 melanoma = system: M14 melanoma
IGROV1 ovarian = system: IGROV1 ovarian
SNB-75 CNS = system: SNB-75 CNS
SK-MEL-28 melanoma = system: SK-MEL-28 melanoma
OVCAR-3 ovarian = system: OVCAR-3 ovarian
HCC-2998 colon = system: HCC-2998 colon
OVCAR-4 ovarian = system: OVCAR-4 ovarian
RPMI-8226 leukemia = system: RPMI-8226 leukemia
RXF 393 renal = system: RXF 393 renal
UACC-62 melanoma = system: UACC-62 melanoma
NCI-H23 lung = system: NCI-H23 lung
NCI-H226 lung = system: NCI-H226 lung
DMS 114 small cell lung = system: DMS 114 small cell lung
HT29 colon = system: HT29 colon
SNB-19 CNS = system: SNB-19 CNS
MOLT-4 leukemia = system: MOLT-4 leukemia
CCRF-CEM leukemia = system: CCRF-CEM leukemia
A549 NSCLC = system: A549 NSCLC
SF-539 CNS = system: SF-539 CNS
DLD-1 colon = system: DLD-1 colon
HL-60(TB) leukemia = system: HL-60(TB) leukemia
TK-10 renal = system: TK-10 renal
HOP-92 NSCLC = system: HOP-92 NSCLC
SK-MEL-2 melanoma = system: SK-MEL-2 melanoma
SW-620 colon = system: SW-620 colon
SNB-78 CNS = system: SNB-78 CNS
UACC-257 melanoma = system: UACC-257 melanoma
K-562 leukemia = system: K-562 leukemia
SK-MEL-5 melanoma = system: SK-MEL-5 melanoma
MALME-3M melanoma = system: MALME-3M melanoma
LOX IMVI melanoma = system: LOX IMVI melanoma
U251 CNS = system: U251 CNS
CAKI-1 renal = system: CAKI-1 renal
SN12C renal = system: SN12C renal
ACHN renal = system: ACHN renal
XF 498 CNS = system: XF 498 CNS
A498 renal = system: A498 renal
NCI-H460 lung = system: NCI-H460 lung
DMS 273 small cell lung = system: DMS 273 small cell lung
SF-295 CNS = system: SF-295 CNS
NCI-H522 lung = system: NCI-H522 lung
OVCAR-5 ovarian = system: OVCAR-5 ovarian
KM20L2 colon = system: KM20L2 colon

With `COc1cc(N=Nc2ccccc2)cc(/C=N\[N-]C(N)=S)c1[O-].COc1cc(N=Nc2ccccc2)cc(/C=N\[N-]C(N)=S)c1[O-].[Fe+4]` the GI50 (EKVX NSCLC) was over 100 µM, the TGI (EKVX NSCLC) was over 100 µM and the GI50 (OVCAR-8 ovarian) was 29.1 µM. It also gave a TGI (OVCAR-8 ovarian) of over 100 µM, a GI50 (SF-268 CNS) of 12.2 µM and a TGI (SF-268 CNS) of over 100 µM. For the same molecule, the GI50 (786-0 renal) was 36.2 µM, the TGI (786-0 renal) was over 100 µM and the GI50 (LXFL 529 NSCLC) was 13.7 µM. For the same molecule, the TGI (LXFL 529 NSCLC) was over 100 µM, the GI50 (SK-OV-3 ovarian) was over 100 µM and the TGI (SK-OV-3 ovarian) was over 100 µM. It also gave a GI50 (KM12 colon) of 23 µM, a TGI (KM12 colon) of over 100 µM and a GI50 (HOP-62 NSCLC) of 23.4 µM. For the same molecule, the TGI (HOP-62 NSCLC) was 89.9 µM, the GI50 (M19-MEL melanoma) was 16.8 µM and the TGI (M19-MEL melanoma) was 75.9 µM. The GI50 (UO-31 renal) was 30.6 µM, the TGI (UO-31 renal) was over 100 µM and the GI50 (HCT-116 colon) was 19.5 µM. For the same molecule, the TGI (HCT-116 colon) was over 100 µM, the GI50 (COLO 205 colon) was 24.3 µM and the TGI (COLO 205 colon) was 61.3 µM. It also gave a GI50 (M14 melanoma) of over 100 µM, a TGI (M14 melanoma) of over 100 µM and a GI50 (IGROV1 ovarian) of 29.1 µM. The TGI (IGROV1 ovarian) was over 100 µM, the GI50 (SNB-75 CNS) was 35.2 µM and the TGI (SNB-75 CNS) was over 100 µM. It also gave a GI50 (SK-MEL-28 melanoma) of 24.4 µM, a TGI (SK-MEL-28 melanoma) of over 100 µM and a GI50 (OVCAR-3 ovarian) of over 100 µM. For the same molecule, the TGI (OVCAR-3 ovarian) was over 100 µM, the GI50 (HCC-2998 colon) was 29.7 µM and the TGI (HCC-2998 colon) was over 100 µM. The GI50 (OVCAR-4 ovarian) was 17.8 µM, the TGI (OVCAR-4 ovarian) was over 100 µM and the GI50 (RPMI-8226 leukemia) was 18.2 µM. It also gave a TGI (RPMI-8226 leukemia) of over 100 µM, a GI50 (RXF 393 renal) of 10.9 µM and a TGI (RXF 393 renal) of over 100 µM. It also gave a GI50 (UACC-62 melanoma) of 0.378 µM, a TGI (UACC-62 melanoma) of over 100 µM and a GI50 (NCI-H23 lung) of 21.1 µM. It also gave a TGI (NCI-H23 lung) of over 100 µM, a GI50 (NCI-H226 lung) of over 100 µM and a TGI (NCI-H226 lung) of over 100 µM. For the same molecule, the GI50 (DMS 114 small cell lung) was 11.8 µM, the TGI (DMS 114 small cell lung) was 83.4 µM and the GI50 (HT29 colon) was 34.9 µM. For the same molecule, the TGI (HT29 colon) was over 100 µM, the GI50 (SNB-19 CNS) was 44.4 µM and the TGI (SNB-19 CNS) was over 100 µM. It also gave a GI50 (MOLT-4 leukemia) of 5.59 µM, a TGI (MOLT-4 leukemia) of 44.9 µM and a GI50 (CCRF-CEM leukemia) of 15.8 µM. For the same molecule, the TGI (CCRF-CEM leukemia) was 92.6 µM, the GI50 (A549 NSCLC) was 46.4 µM and the TGI (A549 NSCLC) was over 100 µM. The GI50 (SF-539 CNS) was 43.5 µM, the TGI (SF-539 CNS) was over 100 µM and the GI50 (DLD-1 colon) was 18.5 µM. The TGI (DLD-1 colon) was over 100 µM, the GI50 (HL-60(TB) leukemia) was 12.6 µM and the TGI (HL-60(TB) leukemia) was over 100 µM. It also gave a GI50 (TK-10 renal) of 48.1 µM, a TGI (TK-10 renal) of over 100 µM and a GI50 (HOP-92 NSCLC) of over 100 µM. The TGI (HOP-92 NSCLC) was over 100 µM, the GI50 (SK-MEL-2 melanoma) was 7.72 µM and the TGI (SK-MEL-2 melanoma) was 50.4 µM. For the same molecule, the GI50 (SW-620 colon) was 50.2 µM, the TGI (SW-620 colon) was over 100 µM and the GI50 (SNB-78 CNS) was over 100 µM. For the same molecule, the TGI (SNB-78 CNS) was over 100 µM, the GI50 (UACC-257 melanoma) was over 100 µM and the TGI (UACC-257 melanoma) was over 100 µM. The GI50 (K-562 leukemia) was 16.1 µM, the TGI (K-562 leukemia) was over 100 µM and the GI50 (SK-MEL-5 melanoma) was 13.5 µM. For the same molecule, the TGI (SK-MEL-5 melanoma) was 49 µM, the GI50 (MALME-3M melanoma) was 59.6 µM and the TGI (MALME-3M melanoma) was over 100 µM.

`[N-]=[N+]=NC1CC(n2cc(COCC(F)(F)F)c(=O)[nH]c2=O)OC1CO` (configuration not stated) showed a TGI (EKVX NSCLC) of over 100 µM, a TGI (LOX IMVI melanoma) of over 100 µM and a TGI (OVCAR-8 ovarian) of over 100 µM. It also gave a TGI (SF-268 CNS) of over 100 µM, a TGI (786-0 renal) of over 100 µM and a TGI (LXFL 529 NSCLC) of over 100 µM. It also gave a TGI (SK-OV-3 ovarian) of over 100 µM, a TGI (KM12 colon) of over 100 µM and a TGI (HOP-62 NSCLC) of over 100 µM. For the same molecule, the TGI (M19-MEL melanoma) was over 100 µM, the TGI (U251 CNS) was over 100 µM and the TGI (UO-31 renal) was over 100 µM. It also gave a TGI (CAKI-1 renal) of over 100 µM, a TGI (SN12C renal) of over 100 µM and a TGI (COLO 205 colon) of over 100 µM. For the same molecule, the TGI (M14 melanoma) was over 100 µM, the TGI (IGROV1 ovarian) was over 100 µM and the TGI (SNB-75 CNS) was over 100 µM. For the same molecule, the TGI (SK-MEL-28 melanoma) was over 100 µM, the TGI (OVCAR-3 ovarian) was over 100 µM and the TGI (HCC-2998 colon) was over 100 µM. It also gave a TGI (OVCAR-4 ovarian) of over 100 µM, a TGI (ACHN renal) of over 100 µM and a TGI (RPMI-8226 leukemia) of over 100 µM. It also gave a TGI (XF 498 CNS) of over 100 µM, a TGI (RXF 393 renal) of over 100 µM and a TGI (UACC-62 melanoma) of over 100 µM. For the same molecule, the TGI (NCI-H23 lung) was over 100 µM, the TGI (DMS 114 small cell lung) was over 100 µM and the TGI (HT29 colon) was over 100 µM. It also gave a TGI (A498 renal) of over 100 µM, a TGI (SNB-19 CNS) of over 100 µM and a TGI (MOLT-4 leukemia) of over 100 µM. For the same molecule, the TGI (CCRF-CEM leukemia) was over 100 µM, the TGI (A549 NSCLC) was over 100 µM and the TGI (SF-539 CNS) was over 100 µM. The TGI (NCI-H460 lung) was over 100 µM, the TGI (DMS 273 small cell lung) was over 100 µM and the TGI (DLD-1 colon) was over 100 µM. For the same molecule, the TGI (HL-60(TB) leukemia) was over 100 µM, the TGI (TK-10 renal) was over 100 µM and the TGI (SF-295 CNS) was over 100 µM. The TGI (HOP-92 NSCLC) was over 100 µM, the TGI (NCI-H522 lung) was over 100 µM and the TGI (SK-MEL-2 melanoma) was over 100 µM. It also gave a TGI (SW-620 colon) of over 100 µM, a TGI (SNB-78 CNS) of over 100 µM and a TGI (UACC-257 melanoma) of over 100 µM. For the same molecule, the TGI (K-562 leukemia) was over 100 µM, the TGI (SK-MEL-5 melanoma) was over 100 µM and the TGI (OVCAR-5 ovarian) was over 100 µM. It also gave a TGI (MALME-3M melanoma) of over 100 µM and a TGI (KM20L2 colon) of over 100 µM.
